Experimental data published in patent US7968556B2, “Heteroaryl compounds, compositions thereof, and methods of treatment therewith” (Signal Pharmaceuticals, LLC, priority 2006, dated 2011).

How the values were obtained:
IKK-2 = target: T1, IKK-2 (Homo sapiens, UniProt O14920, S177E/S181E); test: IKK-2 screening assay (IKK2EE 33P Assay / IKK2EE NEMO HTRF Assay); assay type: biochemical
T1 sequence (O14920 1-756 S177E/S181E): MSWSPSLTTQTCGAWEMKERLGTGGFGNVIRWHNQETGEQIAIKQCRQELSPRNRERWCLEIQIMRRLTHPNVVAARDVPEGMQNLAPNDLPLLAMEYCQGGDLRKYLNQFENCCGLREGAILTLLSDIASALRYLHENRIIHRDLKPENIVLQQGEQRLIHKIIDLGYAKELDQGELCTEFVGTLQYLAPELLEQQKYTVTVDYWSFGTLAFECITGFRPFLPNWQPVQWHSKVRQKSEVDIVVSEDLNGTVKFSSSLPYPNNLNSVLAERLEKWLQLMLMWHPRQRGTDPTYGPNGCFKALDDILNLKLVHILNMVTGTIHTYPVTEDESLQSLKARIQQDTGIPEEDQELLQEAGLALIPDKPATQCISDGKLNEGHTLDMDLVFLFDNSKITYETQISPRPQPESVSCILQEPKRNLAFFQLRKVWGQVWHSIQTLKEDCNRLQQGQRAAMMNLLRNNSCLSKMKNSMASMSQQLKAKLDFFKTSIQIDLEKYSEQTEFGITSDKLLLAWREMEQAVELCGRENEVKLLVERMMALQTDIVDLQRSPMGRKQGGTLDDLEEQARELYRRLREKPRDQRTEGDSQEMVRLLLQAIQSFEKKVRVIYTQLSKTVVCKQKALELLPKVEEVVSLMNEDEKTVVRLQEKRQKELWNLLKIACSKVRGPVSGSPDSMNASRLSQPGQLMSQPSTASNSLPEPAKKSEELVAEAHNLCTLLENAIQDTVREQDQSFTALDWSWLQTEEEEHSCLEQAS
Experimental: The following is an example of an assay that can be used to determine the IKK2EE inhibitory activity of a test compound.
A reaction buffer (pH 7.8) is prepared containing HEPES (20 mM), MgCl2 (10 mM), EDTA (0.1 mM), DTT (1 mM) and Triton X-100 (0.004%). IKK2EE (0.75 μg/ml is used. GST-IKBα (50 μg/ml) is used as substrate. Adenosine 5′-triphosphate (1.5 μM with ^33P-ATP 5 nCi/μl) is used. Reactions are stopped with trichloroacetic acid (6.25%).
Appropriate amounts of test compounds or controls in 100% DMSO are added to the assay plate. A peptide-substrate solution (PSS) is prepared by adding peptide stock to an appropriate volume of buffer (peptide concentration in the PSS will be about 100 μg/ml). An enzyme-peptide solution (EPS) is prepared by adding enzyme stock to an appropriate volume of PSS (the enzyme concentration in the EPS will be about 1 μg/ml). An ATP solution is prepared by adding ATP stock to an appropriate volume of buffer (the ATP concentration will be 15 μM).
85 μl of EPS is added to the assay wells (or PSS to positive control wells) of 96 well polypropylene plates. The ATP solution is then completed by adding ^33P-ATP (to a final concentration of 50 μCi/ml).
The reaction is initiated by adding 10 μl ATP solution to each well. Plates are shaken from about 12 seconds and allowed to incubate at room temperature for 1 hours. 100 μl of trichloroacetic acid solution (12.5%) is added to stop the reaction and the plates are incubated at room temperature for at least 10 minutes. The assay plates are harvested onto a Millipore Multiscreen harvest Plate FC using an appropriate harvester and the harvest plates are washed with 1×PBS solution for about 10 seconds (continuous flow). Harvest plates are allowed to dry thoroughly and the bottoms of the plates are sealed. 20-50 μl of Microscint20 is added to each well, tops are sealed and plates are read using an appropriate scintillation counter.
A reaction buffer (pH 7.6) is prepared containing HEPES (20 mM), MgCl2 (10 mM), EDTA (0.05 mM), DTT (1 mM) and Triton X-100 (0.004%). IKK2EE-NEMO (0.7 μg/ml is used. GST-IKBα (0.5 μg/ml) is used as substrate. Adenosine 5′-triphosphate (1.5 μM) is used. Detection reagents used are mouse anti-P-IKBα (30 ng/ml), Eu anti-mouse (300 ng/ml) and Cy5 anti-GST (11.5 μg/ml). Reactions are stopped with EDTA (20 mM).
An enzyme solution (ES) is prepared by adding enzyme stock to an appropriate volume of buffer (enzyme concentration in the ES will be about 1.7 ng/ml). A detection mixture (DM) is prepared by adding ATP (final conc. 3.75 μM), mouse anti-P-IKBα (final conc. 75 ng/ml), GST-IKBα (final conc. 1.26 μg/ml), Eu anti-mouse in buffer (final conc. 750 ng/ml).
5 μl of compound (solvated in 10% DMSO) is added to assay wells (or 10% DMSO to control wells) of low binding reaction plates. […] ES is added to assay wells (or buffer to control wells) and the reaction is initiated by adding 10 μl DM to all wells. Plates are incubated at room temperature for 45 minutes. Stop mixture is prepared by adding EDTA (final conc. 70 mM) and Cy5 anti-GST (final conc. 40 μg/ml) to an appropriate volume of buffer. Stop mixture is added and plates are shaken for 20 seconds and incubated at room temperature for at least 3 hours (preferably in the dark). Plates are read on an Analyst HT using Multi-Method HTRF.

Compound	melting point [°C]	IC50 (IKK-2) [µM]
NC(=O)c1nc(-c2cccnc2)nc2c1[nH]c(=O)n2[C@H]1CC[C@H](O)CC1 [Compound 50, 9-(trans-4-Hydroxycyclohexyl)-8-oxo-2-(pyridin-3-yl)-8,9-dihydro-7H-purine-6-carboxamide]	343 to 345	0.1 to 5
COc1ccccc1-n1c(=O)[nH]c2c(C(N)=O)nc(-c3ccc(O)cc3)nc21 [Compound 8, 2-(4-hydroxyphenyl)-9-(2-methoxyphenyl)-8-oxo-8,9-dihydro-7H-purine-6-carboxamide]	362 to 363	> 30
COc1ccccc1-n1c(=O)[nH]c2c(C(N)=O)nc(-c3ccnc(O)c3)nc21 [Compound 13, 2-(2-hydroxypyridin-4-yl)-9-(2-methoxyphenyl)-8-oxo-8,9-dihydro-7H-purine-6-carboxamide]	360 to 362	> 30
